This note sets out measurements from patent publication US11912693B2, “Compounds for modulating S1P1 activity and methods of using the same” (TREVENA, INC., priority 2017, dated 2024).

SMILES strings stand for the structures.

The target of assay [1] is T1, human sphingosine-1-phosphate receptor 1 (S1P1) (Homo sapiens (Human), UniProt P21453). Nature of the assay: β-Arrestin2 recruitment assay (PathHunter), S1P1 CHO-K1 cells. As to conditions: for Emax: CHO-K1, efficacy (SPAN) normalized to fingolimod, read-out: hS1P1 B-arrestin2 SPAN; for EC50 / hS1P1 B-arrestin2 pEC50: β-arrestin2 recruitment, S1P1 CHO-K1 cells; for EC50: read-out: hS1P1 B-arrestin2 pEC50 (converted). It is filed as cell-based. The gist of the method: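 Enzyme-fragment complementation read-out: agonist-driven β-arrestin2 binding to ProLink-tagged human S1P1 in stable CHO-K1 cells restores β-galactosidase, measured 1 h at room temperature after a 60 min 37° C. compound incubation. Potency as pEC50, efficacy relative to fingolimod (SPAN).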
(Activated receptors often draw arrestin, which recruitment assays turn into a signal.)
Target sequence in this assay (P21453 whole entry, looked up, the tested form may be a part): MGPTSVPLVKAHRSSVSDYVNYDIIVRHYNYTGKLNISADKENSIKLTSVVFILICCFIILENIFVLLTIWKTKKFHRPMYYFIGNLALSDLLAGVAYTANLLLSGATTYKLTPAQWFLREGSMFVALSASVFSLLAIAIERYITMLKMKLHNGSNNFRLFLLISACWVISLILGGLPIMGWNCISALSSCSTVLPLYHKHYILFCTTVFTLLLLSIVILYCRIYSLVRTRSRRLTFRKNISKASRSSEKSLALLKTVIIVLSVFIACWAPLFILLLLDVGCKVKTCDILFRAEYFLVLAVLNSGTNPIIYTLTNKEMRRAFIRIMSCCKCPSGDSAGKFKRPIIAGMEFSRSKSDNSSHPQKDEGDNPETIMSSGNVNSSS
Target sequence in this assay (P32121 whole entry partner, looked up, the tested form may be a part): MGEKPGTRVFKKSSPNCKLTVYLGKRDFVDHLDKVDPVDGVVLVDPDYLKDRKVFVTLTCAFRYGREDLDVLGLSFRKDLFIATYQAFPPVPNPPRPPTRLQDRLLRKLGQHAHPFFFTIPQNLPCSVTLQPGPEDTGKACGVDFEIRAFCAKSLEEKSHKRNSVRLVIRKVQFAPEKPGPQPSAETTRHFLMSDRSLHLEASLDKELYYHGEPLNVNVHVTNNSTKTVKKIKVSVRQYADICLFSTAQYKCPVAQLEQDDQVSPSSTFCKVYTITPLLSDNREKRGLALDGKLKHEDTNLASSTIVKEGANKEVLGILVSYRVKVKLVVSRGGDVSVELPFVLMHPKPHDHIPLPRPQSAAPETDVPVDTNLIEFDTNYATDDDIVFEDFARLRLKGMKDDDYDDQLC

Assay [2] has as its target T1, human sphingosine-1-phosphate receptor 1 (S1P1). The assay can be described thus: Inhibition of cAMP production (HTRF cAMP HiRange), S1P1 CHO-K1 cells. The following applies: for Emax: CHO-K1, efficacy (SPAN) normalized to fingolimod, read-out: hS1P1 cAMP SPAN; for EC50 / hS1P1 cAMP pEC50: inhibition of cAMP production, S1P1 CHO-K1 cells; for EC50: read-out: hS1P1 cAMP pEC50 (converted). It is filed as cell-based. The gist of the method: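 CHO-K1 cells stably co-expressing human S1P1 (C-terminal Prolink tag) and EA-β-arrestin2 were grown in AssayComplete Media 6 at 37° C. and 5% CO2, plated, and incubated overnight. Agonist-driven inhibition of intracellular cAMP was read by TR-FRET with the HTRF cAMP HiRange kit on a PheraStar reader. Potency is pEC50, and efficacy (SPAN) is normalized to fingolimod.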
Target sequence in this assay (P21453 whole entry, looked up, the tested form may be a part): as the sequence (P21453 whole entry, looked up, the tested form may be a part) above
On the technique in general: Changes in cAMP serve as a functional read-out for many G protein-coupled receptors.

As for `Cc1cc(-c2noc(-c3ccc4c(c3)nnn4CC(C)(C)O)n2)c(C)o1` [Compound 493, 1-{5-[3-(2,5-dimethylfuran-3-yl)-1,2,4-oxadiazol-5-yl]-1H-1,2,3-benzotriazol-1-yl}-2-methylpropan-2-ol], the Emax in assay [1] and in assay [2] was greater than 75% in each case. Also, the results for the EC50 in assay [1] and in assay [2] were greater than 10 µM and greater than 0.316 µM, respectively.

As to `COCC1(COC)CC(=O)c2cc(-c3nc(-c4ccncc4)no3)ccc2O1` [Compound 494, 2,2-bis(methoxymethyl)-6-[3-(pyridin-4-yl)-1,2,4-oxadiazol-5-yl]-3,4-dihydro-2H-1-benzopyran-4-one], the “hS1P1 B-arrestin2 pEC50” value in assay [1] was greater than 5. Further, the “hS1P1 cAMP pEC50” value in assay [2] is recorded as less than 6.5.

Take `CCC1(CC)CC(=O)c2cc(-c3nc(-c4ccoc4)no3)ccc2O1` [Compound 495, 2,2-diethyl-6-(3-(furan-3-yl)-1,2,4-oxadiazol-5-yl)chroman-4-one]: the “hS1P1 B-arrestin2 pEC50” value in assay [1] is reported as greater than 5. Moreover, the “hS1P1 cAMP pEC50” value in assay [2] is greater than 6.5.

Regarding `CC(C)n1nnc2cc(-c3nc(-c4cccnc4Cl)no3)ccc21` [Compound 499, 5-[3-(2-chloropyridin-3-yl)-1,2,4-oxadiazol-5-yl]-1-(propan-2-yl)-1H-1,2,3-benzotriazole], in assay [1], the Emax was greater than 75% and the EC50 is less than 10 µM. For the same compound, in assay [2], the Emax is greater than 75% and the EC50 is less than 0.316 µM.

With `CCC1(CC)CC(=O)c2cc(-c3nc(-c4ccc5nonc5c4)no3)ccc2O1` [Compound 500, 6-[3-(2,1,3-benzoxadiazol-5-yl)-1,2,4-oxadiazol-5-yl]-2,2-diethyl-3,4-dihydro-2H-1-benzopyran-4-one], the “hS1P1 B-arrestin2 pEC50” value in assay [1] is on record as less than 5. The “hS1P1 cAMP pEC50” value in assay [2] is listed as less than 6.5.

`CC(C)(O)Cn1nnc2cc(-c3nc(-c4ccc5nc[nH]c5c4)no3)ccc21` [Compound 501, 1-{5-[3-(1H-1,3-benzodiazol-6-yl)-1,2,4-oxadiazol-5-yl]-1H-1,2,3-benzotriazol-1-yl}-2-methylpropan-2-ol]: in assay [1], the Emax was greater than 75% and the “hS1P1 B-arrestin2 pEC50” value was less than 5. Besides, in assay [2], the Emax is less than 75% and the “hS1P1 cAMP pEC50” value is on record as less than 6.5.

Turning to `CC(C)n1nnc2cc(-c3nc4ccncc4o3)ccc21` [Compound 503, 2-(1-isopropyl-1H-benzo[d][1,2,3]triazol-5-yl)oxazolo[5,4-c]pyridine], in assay [1], the Emax was greater than 75% and the “hS1P1 B-arrestin2 pEC50” value was less than 5. In addition, in assay [2], the Emax is greater than 75% and the “hS1P1 cAMP pEC50” value is reported as less than 6.5.

`CC(C)Cn1nnc2cc(-c3nc4ccncc4o3)ccc21` [Compound 504, 2-(1-isobutyl-1H-benzo[d][1,2,3]triazol-5-yl)oxazolo[5,4-c]pyridine]: in assay [1], the Emax is less than 75% and the “hS1P1 B-arrestin2 pEC50” value is recorded as less than 5. In assay [2], the Emax is greater than 75% and the “hS1P1 cAMP pEC50” value was less than 6.5.

Regarding `Cc1ccccc1-c1nc(-c2ccc3c(c2)nnn3CC(C)(C)CO)no1` [Compound 505, 2,2-dimethyl-3-(5-(5-(o-tolyl)-1,2,4-oxadiazol-3-yl)-1H-benzo[d][1,2,3]triazol-1-yl)propan-1-ol], the “hS1P1 B-arrestin2 pEC50” value in assay [1] was less than 5. Moreover, the “hS1P1 cAMP pEC50” value in assay [2] is listed as less than 6.5.

Regarding `CC(C)Oc1ccc(-c2ccc(-c3ccc4c(c3)nnn4C(C)C)cc2)cc1C#N` [Compound 506, 4-isopropoxy-4′-(1-isopropyl-1H-benzo[d][1,2,3]triazol-5-yl)-[1,1′-biphenyl]-3-carbonitrile], in assay [1], the Emax is less than 75% and the “hS1P1 B-arrestin2 pEC50” value is listed as greater than 5. Moreover, in assay [2], the Emax is less than 75% and the “hS1P1 cAMP pEC50” value is recorded as greater than 6.5.

As for `CC(C)Nc1ccc(-c2ccc(-c3ccc4c(c3)nnn4C(C)C)cc2)cc1C#N` [Compound 507, 4′-(1-isopropyl-1H-benzo[d][1,2,3]triazol-5-yl)-4-(isopropylamino)-[1,1′-biphenyl]-3-carbonitrile], in assay [1], the Emax is less than 75% and the “hS1P1 B-arrestin2 pEC50” value is reported as less than 5. In assay [2], the Emax was less than 75% and the “hS1P1 cAMP pEC50” value was greater than 6.5.

With `C=CCNc1ccc(-c2ccc(-c3ccc4c(c3)nnn4C(C)C)cc2)cc1C#N` [Compound 508, 4-(allylamino)-4′-(1-isopropyl-1H-benzo[d][1,2,3]triazol-5-yl)-[1,1′-biphenyl]-3-carbonitrile], in assay [1], the Emax was less than 75% and the “hS1P1 B-arrestin2 pEC50” value was less than 5. Moreover, in assay [2], the Emax is greater than 75% and the “hS1P1 cAMP pEC50” value is recorded as less than 6.5.

Regarding `CCC1(CC)CC(=O)c2cc(-c3ncc(-c4cccnc4)cn3)ccc2O1` [Compound 509, 2,2-diethyl-6-(5-(pyridin-3-yl)pyrimidin-2-yl)chroman-4-one], in assay [1], the “hS1P1 B-arrestin2 pEC50” value is recorded as less than 5. Moreover, the “hS1P1 cAMP pEC50” value in assay [2] is less than 6.5.

Consider `CCC1(CC)CC(=O)c2cc(-c3ncc(-c4ccncc4)cn3)ccc2O1` [Compound 510, 2,2-diethyl-6-(5-(pyridin-4-yl)pyrimidin-2-yl)chroman-4-one], for which the “hS1P1 B-arrestin2 pEC50” value in assay [1] is greater than 5. Further, in assay [2], the “hS1P1 cAMP pEC50” value is greater than 6.5.

`CC(C)n1nnc2cc(-c3nc(-c4ccc5nc[nH]c5c4)no3)ccc21` [Compound 511, 5-[3-(1H-1,3-benzodiazol-6-yl)-1,2,4-oxadiazol-5-yl]-1-(propan-2-yl)-1H-1,2,3-benzotriazole]: in assay [1], the Emax is greater than 75% and the “hS1P1 B-arrestin2 pEC50” value was greater than 5. Also, in assay [2], the Emax is less than 75% and the “hS1P1 cAMP pEC50” value is listed as greater than 6.5.

`CCC1(CC)CC(=O)c2cc(-c3nc(-c4ccnc(NC(C)=O)c4)no3)ccc2O1` [Compound 512, N-(4-(5-(2,2-diethyl-4-oxochroman-6-yl)-1,2,4-oxadiazol-3-yl)pyridin-2-yl)acetamide]: the “hS1P1 B-arrestin2 pEC50” value in assay [1] is on record as greater than 5. Also, in assay [2], the “hS1P1 cAMP pEC50” value is listed as greater than 6.5.

With `COc1cccc2nc(-c3ccc4c(c3)nnn4C(C)C)oc12` [Compound 515, 2-(1-isopropyl-1H-benzo[d][1,2,3]triazol-5-yl)-7-methoxybenzo[d]oxazole], in assay [1], the Emax is greater than 75% and the “hS1P1 B-arrestin2 pEC50” value is reported as greater than 5. For the same compound, in assay [2], the Emax was greater than 75% and the “hS1P1 cAMP pEC50” value is greater than 6.5.

Turning to `Cc1ccccc1-c1c[nH]c(-c2ccc3c(c2)nnn3C(C)C)c1` [Compound 516, 5-[4-(2-methylphenyl)-1H-pyrrol-2-yl]-1-(propan-2-yl)-1H-1,2,3-benzotriazole], in assay [1], the Emax is less than 75% and the “hS1P1 B-arrestin2 pEC50” value is listed as greater than 5. In addition, in assay [2], the Emax is less than 75% and the “hS1P1 cAMP pEC50” value is given as less than 6.5.

Regarding `Cc1ccccc1-c1cc(-c2ccc3c(c2)nnn3C(C)C)n(C)c1` [Compound 517, 5-[1-methyl-4-(2-methylphenyl)-1H-pyrrol-2-yl]-1-(propan-2-yl)-1H-1,2,3-benzotriazole], in assay [1], the Emax was less than 75% and the “hS1P1 B-arrestin2 pEC50” value was greater than 5. Besides, in assay [2], the Emax is less than 75% and the “hS1P1 cAMP pEC50” value is less than 6.5.

With `Cc1cn(C)nc1-c1noc(-c2ccc3c(c2)nnn3CC(C)(C)O)n1` [Compound 518, 1-{5-[3-(1,4-dimethyl-1H-pyrazol-3-yl)-1,2,4-oxadiazol-5-yl]-1H-1,2,3-benzotriazol-1-yl}-2-methylpropan-2-ol], the “hS1P1 B-arrestin2 pEC50” value in assay [1] is given as less than 5. The “hS1P1 cAMP pEC50” value in assay [2] is on record as less than 6.5.

As for `CCC1(CC)CC(=O)c2cc(-c3nc(-c4ccc5ncccc5c4)no3)ccc2O1` [Compound 521, 2,2-diethyl-6-(3-(quinolin-6-yl)-1,2,4-oxadiazol-5-yl)chroman-4-one], in assay [1], the “hS1P1 B-arrestin2 pEC50” value is less than 5. In addition, in assay [2], the “hS1P1 cAMP pEC50” value was less than 6.5.

Turning to `CCC1(CC)CC(=O)c2cc(-c3nc(-c4ccc5cnccc5c4)no3)ccc2O1` [Compound 522, 2,2-diethyl-6-(3-(isoquinolin-6-yl)-1,2,4-oxadiazol-5-yl)chroman-4-one], the “hS1P1 B-arrestin2 pEC50” value in assay [1] is less than 5. In addition, in assay [2], the “hS1P1 cAMP pEC50” value is listed as less than 6.5.

`COc1ccc(-c2nc(-c3ccc4c(c3)nnn4CC(C)(C)CO)no2)c(C)c1` [Compound 523, 3-(5-(5-(4-methoxy-2-methylphenyl)-1,2,4-oxadiazol-3-yl)-1H-benzo[d][1,2,3]triazol-1-yl)-2,2-dimethylpropan-1-ol]: the “hS1P1 B-arrestin2 pEC50” value in assay [1] is recorded as less than 5. In addition, the “hS1P1 cAMP pEC50” value in assay [2] is less than 6.5.

On to `Cc1ccsc1-c1nc(-c2ccc3c(c2)nnn3CC(C)(C)CO)no1` [Compound 524, 2,2-dimethyl-3-(5-(5-(3-methylthiophen-2-yl)-1,2,4-oxadiazol-3-yl)-1H-benzo[d][1,2,3]triazol-1-yl)propan-1-ol], for which the “hS1P1 B-arrestin2 pEC50” value in assay [1] was greater than 5. Further, in assay [2], the “hS1P1 cAMP pEC50” value was greater than 6.5.

As for `COc1ccccc1-c1nc(-c2ccc3c(c2)nnn3CC(C)(C)CO)no1` [Compound 525, 3-(5-(5-(2-methoxyphenyl)-1,2,4-oxadiazol-3-yl)-1H-benzo[d][1,2,3]triazol-1-yl)-2,2-dimethylpropan-1-ol], the “hS1P1 B-arrestin2 pEC50” value in assay [1] was less than 5. Also, the “hS1P1 cAMP pEC50” value in assay [2] is reported as less than 6.5.

For `CC(C)(CO)Cn1nnc2cc(-c3noc(-c4ccccc4Cl)n3)ccc21` [Compound 526, 3-(5-(5-(2-chlorophenyl)-1,2,4-oxadiazol-3-yl)-1H-benzo[d][1,2,3]triazol-1-yl)-2,2-dimethylpropan-1-ol], the “hS1P1 B-arrestin2 pEC50” value in assay [1] is recorded as less than 5. In addition, in assay [2], the “hS1P1 cAMP pEC50” value is on record as less than 6.5.
